The structures appear in SMILES notation.

For orientation: EC50 means the concentration needed to bring the measured effect to its halfway point.

The experiment concerns HBV. As to the kind of experiment: HBV infection in HepG2-NTCP cells (HBeAg AlphaLISA in supernatants). The conditions noted are these: Hepatitis B virus, 192 h; HBV infection of HepG2-NTCP cells; HBeAg in supernatants at day 8 post infection; read-out: Cellular EC50. The experiment is classed as cell-based. An outline of the steps: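 HepG2-NTCP A3 cells were pre-incubated 2 h with 3-fold serially diluted compounds, then infected with HBV at 2000 GE/cell with 4% PEG (0.5% DMSO final). After washing on day 1, cells stayed in 2.5% DMSO medium; supernatant HBeAg measured by AlphaLISA on day 8, EC50 versus DMSO controls.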
For orientation: Alpha assays give light when donor and acceptor beads are brought close together.
Take `CCCCC1CN(c2ccccc2)c2cc(CNc3ccccc3F)c(-c3ccc(F)c(C(=O)O)c3)cc2S(=O)(=O)N1C` (centres unmarked) [Example 565]: the EC50 was 100 to 1000 nM.

Consider `CN1[C@H](C2CCC2)CN(c2ccccc2)c2cc(Cl)c(-c3ccc(Cl)c(C(=O)O)c3)cc2S1(=O)=O` [Example 81], for which the EC50 is < 100 nM. For `Cc1c(F)cccc1Oc1cc2c(cc1-c1ccc(F)c(C(=O)O)c1)S(=O)(=O)N(C)[C@H](C1CCCCC1)CN2c1ccccc1` [Example 410], the concentration for a half-maximal effect (EC50) is < 100 nM. `CN1[C@H](C2CCCCC2)CN(c2ccccc2)c2cc(Oc3cccnc3)c(-c3ccc(F)c(C(=O)O)c3)cc2S1(=O)=O` [Example 415]: the concentration for a half-maximal effect (EC50) was in the range of 100 to 1000 nM. For `COCCC(=O)N1CCC(c2cc3c(cc2-c2ccc(F)c(C(=O)O)c2)S(=O)(=O)N(C)[C@H](C2CCCCC2)CN3c2ccccc2)CC1` [Example 600], the EC50 was > 1000 nM. `CN1[C@H](C2CCCCC2)CN(c2ccccc2)c2cc(Cl)c(-c3cc(NC(=O)OC4CC4)c(C(=O)O)s3)cc2S1(=O)=O` [Example 249]: the 50% effective concentration (EC50) is < 100 nM.

Regarding `COCCOc1cccc(N2C[C@@H](C3CCCCC3)N(C)S(=O)(=O)c3cc(-c4ccc(F)c(C(=O)O)c4)c(Cl)cc32)c1` [Example 312], the EC50 was < 100 nM. With `CC(C)C[C@@H]1CN(c2ccccc2)c2cc(OCCc3cscn3)c(-c3ccc(F)c(C(=O)O)c3)cc2S(=O)(=O)N1C` [Example 460], the EC50 is < 100 nM. Take `CN1[C@H](C2CCCCC2)CN(c2ccccc2)c2cc(Cl)c(-c3ccc(OC(F)(F)F)c(C(=O)O)c3)cc2S1(=O)=O` [Example 174]: the EC50 lay in the range of 100 to 1000 nM. With `CN1[C@H](CC(C)(C)C)CN(c2ccccc2)c2cc(Cl)c(-c3ccc(Cl)c(C(=O)O)c3)cc2S1(=O)=O` [Example 51], the EC50 was < 100 nM. Regarding `CC(C)C[C@@H]1CN(c2ccccc2)c2cc(Nc3ccccc3F)c(-c3ccc(Cl)c(C(=O)O)c3)cc2S(=O)(=O)N1C` [Example 546], the EC50 was 100 to 1000 nM. As for `CSc1cc2c(cc1-c1cc(C)c(C(=O)O)s1)S(=O)(=O)N(C)[C@H](C1CCCCC1)CN2c1ccccc1` [Example 562, (R)-5-(3-cyclohexyl-2-methyl-7-(methylthio)-1,1-dioxido-5-phenyl-2,3,4,5-tetrahydrobenzo[f][1,2,5]thiadiazepin-8-yl)-3-methylthiophene-2-carboxylic acid], the half-maximal effective concentration (EC50) was < 100 nM. `COc1cc(F)cc(Oc2cc3c(cc2-c2ccc(F)c(C(=O)O)c2)S(=O)(=O)N(C)[C@H](C2CCCCC2)CN3c2ccccc2)c1` [Example 409]: the EC50 was < 100 nM. As to `CN1[C@H](C2CCCCC2)CN(c2ccccc2)c2cc(OC3CC4(CCOCC4)C3)c(-c3ccc(F)c(C(=O)O)c3)cc2S1(=O)=O` [Example 383], the 50% effective concentration (EC50) fell in the range of 100 to 1000 nM. To `CN1[C@H](C2CCCCC2)CN(c2ccccc2)c2cc(OC3CCC3)c(-c3ccc(NC(=O)OC4CCC4)c(C(=O)O)c3)cc2S1(=O)=O` [Example 482] belongs < 100 nM; to `CCCCC[C@H](C)Oc1cc2c(cc1-c1ccc(F)c(C(=O)O)c1)S(=O)(=O)N(C)[C@H](C1CCCCC1)CN2c1ccccc1` [Example 356], < 100 nM; to `CN1[C@H](CCc2ccccc2)CN(c2ccccc2)c2cc(Cl)c(-c3ccc(F)c(C(=O)O)c3)cc2S1(=O)=O` [Example 53], > 1000 nM. On to `Cc1cscc1COc1cc2c(cc1-c1ccc(F)c(C(=O)O)c1)S(=O)(=O)N(C)[C@H](C1CCCCC1)CN2c1ccccc1` [Example 338], for which the EC50 is < 100 nM. As to `CCOC(=O)Nc1cc(-c2cc3c(cc2OCCOC)N(c2ccccc2)C[C@@H](C2CCCCC2)N(C)S3(=O)=O)sc1C(=O)O` [Example 517], the 50% effective concentration (EC50) is < 100 nM. Consider `CC(C)C[C@@H]1CN(c2ccccc2)c2cc(N(C)c3ccc(F)cc3)c(-c3ccc(Cl)c(C(=O)O)c3)cc2S(=O)(=O)N1C` [Example 554], for which the concentration for a half-maximal effect (EC50) was in the range of 100 to 1000 nM. With `CN1[C@H](c2ccccc2)CN(c2ccccc2)c2cc(Cl)c(-c3ccc(F)c(C(=O)O)c3)cc2S1(=O)=O` [Example 54], the EC50 is 100 to 1000 nM. With `CN1[C@H](C2CCCCC2)CN(c2ccccc2)c2cc(OCCC3CCN(C(=O)OC(C)(C)C)CC3)c(-c3ccc(F)c(C(=O)O)c3)cc2S1(=O)=O` [Example 367], the EC50 was < 100 nM. To `CCCC[C@H]1CN(c2ccccc2)c2cc(Nc3ccccc3F)c(-c3cccc(C(=O)O)c3)cc2S(=O)(=O)N1C` [Example 539] belongs > 1000 nM; to `Cc1sc(-c2cc3c(cc2Cl)N(c2ccccc2)C[C@@H](C2CCCCC2)N(C)S3(=O)=O)nc1C(=O)O` [Example 125], 100 to 1000 nM; to `CN1[C@H](C2CC2)CN(c2ccccc2)c2cc(Cl)c(-c3ccc(Cl)c(C(=O)O)c3)cc2S1(=O)=O` [Example 65], < 100 nM. The figure for `CN1[C@H](C2CCC2)CN(c2ccccc2)c2cc(Cl)c(-c3ccc([N+](=O)[O-])c(C(=O)O)c3)cc2S1(=O)=O` [Example 203] is < 100 nM; for `CN1[C@H](CN2CCCC2=O)CN(c2ccccc2)c2cc(Cl)c(-c3ccc(F)c(C(=O)O)c3)cc2S1(=O)=O` [Example 115] it is > 1000 nM. Regarding `CN1[C@H](C2CCCCC2)CN(c2ccccc2)c2cc(Cl)c(-c3cccc(C(=O)O)c3O)cc2S1(=O)=O` [Example 148], the EC50 lay within 100 to 1000 nM. Turning to `CN1[C@H](C2CCCCC2)CN(c2ccccc2)c2cc(Cl)c(-c3cccc(P(=O)(O)O)c3)cc2S1(=O)=O` [Example 232, (R)-(3-(7-chloro-3-cyclohexyl-2-methyl-1,1-dioxido-5-phenyl-2,3,4,5-tetrahydrobenzo[f][1,2,5]thiadiazepin-8-yl)phenyl)phosphonic acid], the EC50 lay within 100 to 1000 nM. As to `CC(C)C[C@@H]1CN(c2ccccc2)c2cc(OC3CCN(C)CC3)c(-c3ccc(F)c(C(=O)O)c3)cc2S(=O)(=O)N1C` [Example 448], the 50% effective concentration (EC50) was > 1000 nM. `Cc1cnc(COc2cc3c(cc2-c2ccc(F)c(C(=O)O)c2)S(=O)(=O)N(C)[C@H](C2CCCCC2)CN3c2ccccc2)s1` [Example 342]: the 50% effective concentration (EC50) was < 100 nM.

As for `CC(C)C[C@@H]1CN([C@H]2CCOC2)c2cc(Oc3ccccc3F)c(-c3ccc(F)c(C(=O)O)c3)cc2S(=O)(=O)N1C` [Example 474], the 50% effective concentration (EC50) fell in the range of 100 to 1000 nM. As for `Cc1ccc(Oc2cc3c(cc2-c2ccc(F)c(C(=O)O)c2)S(=O)(=O)N(C)[C@H](C2CCCCC2)CN3c2ccccc2)cc1F` [Example 411], the concentration for a half-maximal effect (EC50) was < 100 nM. As to `COc1cccc(N2C[C@@H](C3CCCCC3)N(C)S(=O)(=O)c3cc(-c4ccc(F)c(C(=O)O)c4)c(Cl)cc32)c1` [Example 305], the concentration for a half-maximal effect (EC50) lay within 100 to 1000 nM. `CCCC[C@@H]1CN(c2ccccc2)c2cc(N3CCCC3)c(-c3ccc(F)c(C(=O)O)c3)cc2S(=O)(=O)N1C` [Example 520, (R)-5-(3-butyl-2-methyl-1,1-dioxido-5-phenyl-7-(pyrrolidin-1-yl)-2,3,4,5-tetrahydrobenzo[f][1,2,5]thiadiazepin-8-yl)-2-fluorobenzoic acid]: the EC50 fell in the range of 100 to 1000 nM. Turning to `CN1[C@H](C2CCCCC2)CN(c2ccccc2)c2cc(C3CCN(C(=O)c4cnn(C)c4)CC3)c(-c3ccc(F)c(C(=O)O)c3)cc2S1(=O)=O` [Example 598], the EC50 is > 1000 nM. On to `CN1[C@H](C2CCCCC2)CN(c2ccccc2)c2cc(N3CCCCC3)c(-c3ccc(Cl)c(C(=O)O)c3)cc2S1(=O)=O` [Example 558, (R)-2-chloro-5-(3-cyclohexyl-2-methyl-1,1-dioxido-5-phenyl-7-(piperidin-1-yl)-2,3,4,5-tetrahydrobenzo[f][1,2,5]thiadiazepin-8-yl)benzoic acid], for which the concentration for a half-maximal effect (EC50) is < 100 nM.

For `CN1[C@H](C2CCCCC2)CN(c2ccccc2)c2cc(Cl)c(-c3cc(NC(=O)OC4CCC4)c(C(=O)O)s3)cc2S1(=O)=O` [Example 250], the EC50 is < 100 nM. Regarding `CN1[C@H](C2CCCCC2)CN(c2cncc(C(F)(F)F)c2)c2cc(Cl)c(-c3ccc(F)c(C(=O)O)c3)cc2S1(=O)=O` [Example 282], the half-maximal effective concentration (EC50) lay in the range of 100 to 1000 nM.

As for `CC(C)C[C@@H]1CN(C23CC(C2)C3)c2cc(Oc3ccccc3F)c(-c3ccc(F)c(C(=O)O)c3)cc2S(=O)(=O)N1C` [Example 469], the EC50 lay in the range of 100 to 1000 nM. To `COC1CCN(c2cc3c(cc2-c2ccc(F)c(C(=O)O)c2)S(=O)(=O)N(C)[C@H](C2CCCCC2)CN3c2ccccc2)CC1` [Example 534] belongs 100 to 1000 nM; to `O=C(O)c1cccc(-c2cc3c(cc2F)N(c2ccccc2)CC2CC4(CC4)CN2S3(=O)=O)c1` (centres unmarked) [Example 5], > 1000 nM. To `CC(C)C[C@@H]1CN(c2ccccc2)c2cc(Cl)c(-c3cccc(S(C)(=N)=O)c3)cc2S(=O)(=O)N1C` (some centres unmarked) [Example 184] belongs > 1000 nM; to `CN1[C@H](C2CCCCC2)CN(c2ccccc2)c2cc(Cl)c(-c3cncc(C(=O)O)c3)cc2S1(=O)=O` [Example 136, (R)-5-(7-chloro-3-cyclohexyl-2-methyl-1,1-dioxido-5-phenyl-2,3,4,5-tetrahydrobenzo[f][1,2,5]thiadiazepin-8-yl)nicotinic acid], > 1000 nM; to `CC(=O)NS(=O)(=O)c1cccc(-c2cc3c(cc2Cl)N(c2ccccc2)C[C@@H](CC(C)C)N(C)S3(=O)=O)c1` [Example 220, (R)—N-((3-(7-chloro-3-isobutyl-2-methyl-1,1-dioxido-5-phenyl-2,3,4,5-tetrahydrobenzo[f][1,2,5]thiadiazepin-8-yl)phenyl)sulfonyl)acetamide], 100 to 1000 nM. The figure for `O=C(O)c1cc(-c2cc3c(cc2Cl)N(c2ccccc2)CC(C2CCCCC2)CS3(=O)=O)cc(F)c1F` (racemic) [Example 606, Rac-5-(7-chloro-3-cyclohexyl-1,1-dioxido-5-phenyl-2,3,4,5-tetrahydrobenzo[b][1,4]thiazepin-8-yl)-2,3-difluorobenzoic acid] is < 100 nM; for `CC(C)C[C@@H]1CN(c2ccccc2)c2cc(Oc3cccc(OC(F)(F)F)c3)c(-c3ccc(F)c(C(=O)O)c3)cc2S(=O)(=O)N1C` [Example 438] it is < 100 nM.

The values above are taken from patent US20240368096A1 (Enanta Pharmaceuticals, Inc., priority 2022, published 2024).
